In patent US20100069345A1, “Lanthanide-porphyrin complexes as anti-tumor agents” (priority 2005, published 2010):

System: cytochrome c
Assay: Western blotting of mitochondrial and cytosolic fractions, cytochrome c
Type: cell-based, human
Settings: HeLa treated with complex 1
Description: Preparation of Mitochondrial and Cytosolic Fractions. Subcellular fractionations of cells were carried out as described previously with modifications […]. In brief, cells were harvested by centrifugation at 1000 g for 5 min at 4° C. Cell pellets were washed once with ice-cold phosphate-buffered saline and resuspended in 5 volumes of buffer A (20 mM HEPES-KOH, pH 7.5, 10 mM KCl, 1.5 mM MgCl2, 1 mM sodium EDTA, 1 mM sodium EGTA, 1 mM dithiothreitol, 0.1 mM phenylmethylsulfonyl fluoride, 1× proteinase inhibitor mix) containing 250 mM sucrose. After incubation on ice for 15 min, the cells were homogenized with a 25-gauge needle for 20 strokes, and the homogenates were centrifuged at 1,000 g for 5 min at 4° C. […] The protein concentration of cell lysates in different portions was measured using a protein detection kit (Bio-Rad). […] Signals were detected using an ECL detection kit (Amersham Pharmacia Biotech) followed by exposure to X-ray films (Fujifilm).
After treatment with complex 1 for different time intervals, the expressions of caspase 3, Bid and PARP were detected by the Western blotting analysis. […]

Substance: [Yb2(OEP)2](μ-OH)2 [Complex 1]
- amount of cytochrome c in the cytosolic fraction: increase
- amount of cytochrome c in the mitochondria: corresponding decrease
